Marks after values point to notes of the source that are not given here. Peptide text beside a SMILES is read from it. * marks the point of attachment. X72 = O=C1C=CC(=O)N1c1ccccc1CCCCCCCCCCC(=O)*; X60 = O=C1C=CC(=O)N1c1ccccc1CCCCCCCCCC(=O)*; X55 = O=C1C=CC(=O)N1c1ccccc1CCCCCCCCC(=O)*
Key:
[1] = test system: choroidal neovascularization; test: Choroidal neovascularization in rats (laser photocoagulation, FFA); assay type: in vivo; conditions: BN rats
Protocol: 6-8 weeks male BN rats were fully anesthetized by intraperitoneal injection of 846 compound anesthetic with a concentration of 0.5 mL/kg. Compound tropicamide eye drops were used once 5 min before laser photocoagulation to fully dilate the pupils of both eyes. The animals were fixed and subjected to krypton laser photocoagulation equidistantly around an optic disc with the aid of a −53.00D corneal contact lens at a distance of 2PD from the optic disc. A total of 8 photocoagulation spots were obtained. The laser wavelength was 647.1 nm, the power was 350 mW, and the diameter and time of the photocoagulation spots were 50 μm and 0.05 s respectively. Fundus photography was performed immediately after photocoagulation. FFA, histopathology and transmission electron microscopy were performed on the days 3, 7, 14, 21 and 28 after photocoagulation respectively.
Through fundus photography and FFA examination, it was confirmed that the fluorescein leakage of the photocoagulation spot reached its peak on day 21 after photocoagulation. At the same time, histopathological examination was carried out.
Rats with successful modeling were randomly grouped, with 5 rats in each group. The groups were marked as a negative control group and X1-X90 treatment groups respectively. The rats were injected with normal saline and X1-X90 (the doses of X1-X90 were each 0.05 μM) in the vitreous chamber once a day for 1 week. FFA examination was carried out 3 days, 7 days, 14 days and 28 days after administration.

HUVECs = test: Transwell migration inhibition on HUVECs; assay type: cell-based, human; conditions: for Inhibition rate (%): HUVEC migration vs blank control; for Cell migration number (Mean ± SD): HUVECs, transwell, 24 h
[2] = test system: xylene-induced ear swelling; test: Xylene-induced mouse ear swelling; assay type: in vivo; conditions: Kunming mice, injected once a day for 5 days; for Swelling degree / Swelling degree (mg): right minus left ear piece weight 2 h after xylene; for Inhibition rate (%): xylene-induced ear swelling
Protocol: Kunming mice were taken, a normal saline group was taken as a blank control group, an aspirin group (200 mg/kg) was taken as a positive control group, and X1-X90 administration groups were taken as test groups. The mice were injected once a day for 5 consecutive days. The blank control group was given an equal volume of normal saline. One hour after the last administration, 0.05 mL of xylene was applied to both sides of the right ear of each mouse to cause inflammation, while no drug was applied to the left ear as a normal ear. Two hours later, the mice were put to death by dislocation. Two ears were cut along the auricle. Ear pieces were taken with a puncher and weighed, and the swelling degree and the swelling rate were calculated. Swelling degree=right ear piece weight-left ear piece weight, swelling rate=(swelling degree/left ear piece weight)*100%. Statistical t-test was conducted on the experimental results. *P<0.05 indicates significant difference, and **P<0.01 indicates extremely significant difference.

[3] = test system: IL-1β production by mouse peritoneal macrophages; test: IL-1β production by mouse peritoneal macrophages (ELISA); assay type: cell-based; conditions: for Inhibition rate: IL-1β production, vs model group; for IL-1β: mouse peritoneal macrophages, 48 h, ELISA
Protocol: Mice were injected intraperitoneally with 1 mL of broth culture medium (containing 6% of starch). Three days later, mice peritoneal macrophages were taken aseptically and washed twice with 1640 culture medium, and the cell concentration was adjusted to 2×10^6 cells/mL. The solutions were injected into 24-well culture plates at 1 mL per well. The cells were incubated in a cell incubator for 3 h and vibrated once every 30 min to make the cells fully adhere to the wall. Then, the cells were washed twice with a culture solution to remove non-adhered cells. PBS was added to the blank group, positive drug Dex was added to the positive group, no drug was added to the model group, and polypeptides X1-X90 with low, medium and high concentrations were added to the test groups; and the cells were continuously cultured for 48 h after administration, and then centrifuged at 1000 r/min for 15 min. The supernatant was collected as a sample to be tested for IL-1β activity.

[4] = test system: carrageenan-induced toe swelling; test: Carrageenan-induced toe swelling in rats; assay type: in vivo; conditions: SD rats; for Swelling degree 1 h: 1 h after carrageenan; for Swelling degree 3 h: 3 h after carrageenan; for Swelling degree 5 h: 5 h after carrageenan; for Swelling degree 7 h: 7 h after carrageenan
Protocol: The rats were injected once a day, and the model group was given the same volume of normal saline for 3 d and fed normally. […] The foot swelling degree was calculated according to the following formula: foot swelling degree (mL)=foot volume after inflammation-foot volume before inflammation. The number of milliliters of overflow liquid was recorded (method: a ballpoint pen is used to circle the protruding point of the right joint as a measurement mark, and the right hind feet of each rat are sequentially placed into the volume measurer, so that the hind limbs are exposed outside the barrel, and the immersion depth is at the coincidence of the circle and the liquid level. After the foot enters the liquid, the liquid level rises, and the volume of overflow liquid is the volume of the right hind foot of the rat, and the normal volume of the right hind foot of each rat is measured in sequence).

[5] = day 3 after administration, total light spot number was 297, 0.05 μM in the vitreous chamber once a day for 1 week
[6] = day 7 after administration, total light spot number was 186, 0.05 μM in the vitreous chamber once a day for 1 week
[7] = day 14 after administration, total light spot number was 137, 0.05 μM in the vitreous chamber once a day for 1 week
[8] = day 28 after administration, total light spot number was 69, 0.05 μM in the vitreous chamber once a day for 1 week

Row | SMILES | CNV Incidence (%) [1, 5] [%] | Leakage Light spot number [1, 5] | CNV Incidence (%) [1, 6] [%] | Leakage Light spot number [1, 6] | CNV Incidence (%) [1, 7] [%] | Leakage Light spot number [1, 7] | CNV Incidence (%) [1, 8] [%] | Leakage Light spot number [1, 8] | Inhibition rate (%) (HUVECs; dose 0.05 μM) | Inhibition rate (%) (HUVECs; dose 0.1 μM) | Inhibition rate (%) (HUVECs; dose 0.2 μM) | Inhibition rate (%) ([2]; dose 2 mg/kg) | Swelling degree (mg) ([2]; dose 4 mg/kg) | Inhibition rate (%) ([2]; dose 4 mg/kg) | Swelling degree (mg) ([2]; dose 8 mg/kg) | Inhibition rate (%) ([2]; dose 8 mg/kg) | Inhibition rate ([3]; dose 0.05 μM) [%] | IL-1β ([3]; dose 0.05 μM) [pg/mL] | Inhibition rate ([3]; dose 0.1 μM) [%] | IL-1β ([3]; dose 0.1 μM) [pg/mL] | further results
1 | C[C@H](NC(=O)CNC(=O)[C@H](CCCNC(=N)N)NC(=O)CCCCCCCCc1ccccc1N1C(=O)C=CC1=O)C(=O)N[C@@H](CC(=O)O)C(=O)N[C@@H](CCCNC(=N)N)C(=O)N[C@@H](C)C(=O)NCC(=O)NCC(=O)NCC(=O)NCC(=O)N[C@@H](CCCNC(=N)N)C(=O)NCC(=O)N[C@@H](CC(=O)O)C(=O)O [X20] (X55-RGADRAGGGGRGD-OH) | 52.53 | 156 | 48.92 | 91 | 42.34 | 58 | 39.13 | 27 | 47.45 | 49.79 | 52.70 | 8.19 | 3.78 ± 0.88** mg | 39.33 | 3.47 ± 0.07** mg | 44.30 | 17.90 | 772.72 ± 18.78 | 23.02 | 724.50 ± 12.58 | Cell migration number (Mean ± SD) (HUVECs; dose 0.05 μM): 563.29 ± 41.22; Cell migration number (Mean ± SD) (HUVECs; dose 0.1 μM): 538.18 ± 64.13; Cell migration number (Mean ± SD) (HUVECs; dose 0.2 μM): 506.96 ± 57.65; Swelling degree ([2]; dose 2 mg/kg): 5.72 ± 0.01 mg; Inhibition rate ([3]; dose 0.2 μM): 32.89%; IL-1β ([3]; dose 0.2 μM): 631.59 ± 19.52 pg/mL; Swelling degree 1 h ([4]; 2.0 mg/kg once a day for 3 d): 0.25 ± 0.18 mg; Swelling degree 3 h ([4]; 2.0 mg/kg once a day for 3 d): 0.34 ± 0.13 mg; Swelling degree 5 h ([4]; 2.0 mg/kg once a day for 3 d): 0.36 ± 0.13 mg; Swelling degree 7 h ([4]; 2.0 mg/kg once a day for 3 d): 0.37 ± 0.12 mg; Swelling degree 1 h ([4]; 4.0 mg/kg once a day for 3 d): 0.24 ± 0.15 mg; Swelling degree 3 h ([4]; 4.0 mg/kg once a day for 3 d): 0.34 ± 0.12 mg; Swelling degree 5 h ([4]; 4.0 mg/kg once a day for 3 d): 0.35 ± 0.16 mg; Swelling degree 7 h ([4]; 4.0 mg/kg once a day for 3 d): 0.35 ± 0.12 mg
2 | C[C@H](NC(=O)CNC(=O)[C@H](CCCNC(=N)N)NC(=O)CCCCCCCCCc1ccccc1N1C(=O)C=CC1=O)C(=O)N[C@@H](CC(=O)O)C(=O)N[C@@H](CCCNC(=N)N)C(=O)N[C@@H](C)C(=O)NCC(=O)NCC(=O)NCC(=O)NCC(=O)N[C@@H](CCCNC(=N)N)C(=O)NCC(=O)N[C@@H](CC(=O)O)C(=O)O [X21] (X60-RGADRAGGGGRGD-OH) | 50.84 | 151 | 47.85 | 89 | 46.72 | 64 | 40.58 | 28 | 48.94 | 50.61 | 52.23 | 13.48 | 4.97 ± 0.14* mg | 20.22 | 3.15 ± 0.42** mg | 49.44 | 17.80 | 773.58 ± 10.52 | 32.29 | 637.22 ± 12.95 | Swelling degree ([2]; dose 2 mg/kg): 5.39 ± 0.39 mg; Inhibition rate ([3]; dose 0.2 μM): 44.01%; IL-1β ([3]; dose 0.2 μM): 526.94 ± 17.75 pg/mL; Swelling degree 1 h ([4]; 2.0 mg/kg once a day for 3 d): 0.23 ± 0.19 mg; Swelling degree 3 h ([4]; 2.0 mg/kg once a day for 3 d): 0.32 ± 0.17 mg; Swelling degree 5 h ([4]; 2.0 mg/kg once a day for 3 d): 0.39 ± 0.16 mg; Swelling degree 7 h ([4]; 2.0 mg/kg once a day for 3 d): 0.33 ± 0.12 mg; Swelling degree 1 h ([4]; 4.0 mg/kg once a day for 3 d): 0.25 ± 0.17 mg; Swelling degree 3 h ([4]; 4.0 mg/kg once a day for 3 d): 0.33 ± 0.13 mg; Swelling degree 5 h ([4]; 4.0 mg/kg once a day for 3 d): 0.39 ± 0.14 mg; Swelling degree 7 h ([4]; 4.0 mg/kg once a day for 3 d): 0.35 ± 0.18 mg
3 | C[C@H](NC(=O)CNC(=O)[C@H](CCCNC(=N)N)NC(=O)CCCCCCCCCCc1ccccc1N1C(=O)C=CC1=O)C(=O)N[C@@H](CC(=O)O)C(=O)N[C@@H](CCCNC(=N)N)C(=O)N[C@@H](C)C(=O)NCC(=O)NCC(=O)NCC(=O)NCC(=O)N[C@@H](CCCNC(=N)N)C(=O)NCC(=O)N[C@@H](CC(=O)O)C(=O)O [X22] (X72-RGADRAGGGGRGD-OH) | 53.87 | 160 | 47.85 | 89 | 43.80 | 60 | 37.68 | 26 | 48.22 | 55.21 | 57.65 | 24.24 | 3.67 ± 0.77** mg | 41.09 | 3.42 ± 0.21** mg | 45.10 | 29.53 | 663.21 ± 13.73 | 32.31 | 637.07 ± 19.81 | Cell migration number (Mean ± SD) (HUVECs; dose 0.05 μM): 555.03 ± 66.81; Cell migration number (Mean ± SD) (HUVECs; dose 0.1 μM): 480.13 ± 67.49; Cell migration number (Mean ± SD) (HUVECs; dose 0.2 μM): 453.97 ± 57.23; Swelling degree (mg) ([2]; dose 2 mg/kg): 4.72 ± 0.29* mg; Inhibition rate ([3]; dose 0.2 μM): 38.53%; IL-1β ([3]; dose 0.2 μM): 578.51 ± 14.03 pg/mL; Swelling degree 1 h ([4]; 2.0 mg/kg once a day for 3 d): 0.24 ± 0.13 mg; Swelling degree 3 h ([4]; 2.0 mg/kg once a day for 3 d): 0.31 ± 0.15 mg; Swelling degree 5 h ([4]; 2.0 mg/kg once a day for 3 d): 0.42 ± 0.14 mg; Swelling degree 7 h ([4]; 2.0 mg/kg once a day for 3 d): 0.38 ± 0.18 mg; Swelling degree 1 h ([4]; 4.0 mg/kg once a day for 3 d): 0.23 ± 0.11 mg; Swelling degree 3 h ([4]; 4.0 mg/kg once a day for 3 d): 0.31 ± 0.16 mg; Swelling degree 5 h ([4]; 4.0 mg/kg once a day for 3 d): 0.36 ± 0.13 mg; Swelling degree 7 h ([4]; 4.0 mg/kg once a day for 3 d): 0.37 ± 0.13 mg
